Columns and labels:
[1] = target: D(1A) dopamine receptor (Homo sapiens, UniProt P21728)
[2] = target: T1, 5-hydroxytryptamine receptor 1A (Homo sapiens, UniProt P08908)
T1 sequence (P08908 whole entry): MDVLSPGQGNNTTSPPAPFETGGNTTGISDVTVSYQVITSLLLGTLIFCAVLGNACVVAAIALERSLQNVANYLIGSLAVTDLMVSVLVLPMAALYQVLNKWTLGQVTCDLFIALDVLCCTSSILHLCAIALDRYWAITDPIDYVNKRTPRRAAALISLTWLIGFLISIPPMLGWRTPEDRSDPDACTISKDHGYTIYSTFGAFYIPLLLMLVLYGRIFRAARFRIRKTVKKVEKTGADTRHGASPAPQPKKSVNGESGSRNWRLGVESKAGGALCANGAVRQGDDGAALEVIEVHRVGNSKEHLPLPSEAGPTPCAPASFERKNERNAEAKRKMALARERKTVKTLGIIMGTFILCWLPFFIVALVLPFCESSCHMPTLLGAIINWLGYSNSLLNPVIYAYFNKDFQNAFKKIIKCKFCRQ

[3] = target: Mu-type opioid receptor (Homo sapiens, UniProt P35372)
Sequence of Mu-type opioid receptor (P35372 whole entry): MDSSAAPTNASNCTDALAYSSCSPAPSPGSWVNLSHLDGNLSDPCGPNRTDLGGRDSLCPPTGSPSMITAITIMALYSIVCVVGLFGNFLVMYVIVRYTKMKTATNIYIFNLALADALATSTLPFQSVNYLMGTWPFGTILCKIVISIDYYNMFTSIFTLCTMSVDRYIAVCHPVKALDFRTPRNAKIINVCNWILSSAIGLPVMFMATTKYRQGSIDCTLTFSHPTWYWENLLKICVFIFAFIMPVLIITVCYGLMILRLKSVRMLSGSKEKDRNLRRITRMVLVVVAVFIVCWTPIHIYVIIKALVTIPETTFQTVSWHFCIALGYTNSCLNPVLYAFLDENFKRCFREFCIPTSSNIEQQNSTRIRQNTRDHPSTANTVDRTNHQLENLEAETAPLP

[4] = target: cGMP-inhibited 3',5'-cyclic phosphodiesterase 3A (Homo sapiens, UniProt Q14432); type: functional
Sequence of cGMP-inhibited 3',5'-cyclic phosphodiesterase 3A (Q14432 whole entry): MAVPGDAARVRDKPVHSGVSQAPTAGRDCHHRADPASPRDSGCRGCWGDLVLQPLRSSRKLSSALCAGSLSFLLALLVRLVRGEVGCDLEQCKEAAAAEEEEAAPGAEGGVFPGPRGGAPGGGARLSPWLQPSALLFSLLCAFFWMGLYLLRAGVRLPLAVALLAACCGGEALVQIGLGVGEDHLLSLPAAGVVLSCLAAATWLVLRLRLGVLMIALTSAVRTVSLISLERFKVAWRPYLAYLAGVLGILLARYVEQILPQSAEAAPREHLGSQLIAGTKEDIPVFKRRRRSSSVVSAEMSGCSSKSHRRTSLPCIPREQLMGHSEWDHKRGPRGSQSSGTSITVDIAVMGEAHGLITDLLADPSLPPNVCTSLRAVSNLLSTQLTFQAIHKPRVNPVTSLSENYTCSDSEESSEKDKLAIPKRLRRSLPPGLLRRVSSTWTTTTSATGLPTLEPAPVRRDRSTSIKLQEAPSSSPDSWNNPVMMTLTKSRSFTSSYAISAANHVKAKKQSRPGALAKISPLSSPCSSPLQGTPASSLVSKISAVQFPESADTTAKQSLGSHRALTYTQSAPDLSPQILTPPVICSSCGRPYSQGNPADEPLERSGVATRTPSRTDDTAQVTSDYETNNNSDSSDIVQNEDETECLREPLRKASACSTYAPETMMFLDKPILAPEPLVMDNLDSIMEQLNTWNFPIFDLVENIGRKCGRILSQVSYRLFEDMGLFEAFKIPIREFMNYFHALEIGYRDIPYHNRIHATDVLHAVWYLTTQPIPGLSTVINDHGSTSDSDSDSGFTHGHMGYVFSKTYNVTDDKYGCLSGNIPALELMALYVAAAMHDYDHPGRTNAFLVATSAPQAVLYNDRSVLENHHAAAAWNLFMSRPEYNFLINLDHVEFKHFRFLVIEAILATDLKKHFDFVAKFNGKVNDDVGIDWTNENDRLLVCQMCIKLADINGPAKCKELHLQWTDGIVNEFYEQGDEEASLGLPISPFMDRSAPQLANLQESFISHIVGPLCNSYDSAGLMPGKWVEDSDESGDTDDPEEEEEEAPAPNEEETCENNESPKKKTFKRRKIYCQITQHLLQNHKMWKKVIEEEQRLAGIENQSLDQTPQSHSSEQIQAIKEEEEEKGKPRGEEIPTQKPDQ

[5] = target: T2, Progesterone receptor (Homo sapiens, UniProt P06401)
T2 sequence (P06401 whole entry): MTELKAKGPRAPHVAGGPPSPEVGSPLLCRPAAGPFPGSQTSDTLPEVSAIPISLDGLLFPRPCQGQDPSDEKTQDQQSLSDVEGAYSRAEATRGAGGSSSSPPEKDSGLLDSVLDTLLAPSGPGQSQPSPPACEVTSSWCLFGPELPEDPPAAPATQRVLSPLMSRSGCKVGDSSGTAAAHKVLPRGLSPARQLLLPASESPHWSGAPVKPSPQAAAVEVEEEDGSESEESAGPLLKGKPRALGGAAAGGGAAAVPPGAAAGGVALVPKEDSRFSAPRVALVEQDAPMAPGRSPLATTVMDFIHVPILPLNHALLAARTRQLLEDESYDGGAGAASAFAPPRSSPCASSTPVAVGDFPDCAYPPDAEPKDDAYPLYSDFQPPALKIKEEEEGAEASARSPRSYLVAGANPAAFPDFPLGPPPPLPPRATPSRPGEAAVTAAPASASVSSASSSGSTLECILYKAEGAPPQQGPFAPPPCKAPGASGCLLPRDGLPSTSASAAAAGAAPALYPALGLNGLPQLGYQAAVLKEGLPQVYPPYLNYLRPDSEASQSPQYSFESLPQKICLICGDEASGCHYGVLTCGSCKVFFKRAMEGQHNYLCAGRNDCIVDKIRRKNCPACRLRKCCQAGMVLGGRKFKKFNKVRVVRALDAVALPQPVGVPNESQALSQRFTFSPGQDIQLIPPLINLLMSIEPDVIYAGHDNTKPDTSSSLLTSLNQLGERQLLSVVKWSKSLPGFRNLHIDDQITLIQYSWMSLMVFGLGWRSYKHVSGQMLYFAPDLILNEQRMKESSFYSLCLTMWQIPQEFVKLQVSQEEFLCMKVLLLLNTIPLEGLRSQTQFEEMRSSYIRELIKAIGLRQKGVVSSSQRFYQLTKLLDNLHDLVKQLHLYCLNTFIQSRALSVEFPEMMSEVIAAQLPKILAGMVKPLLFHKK

[6] = target: Sodium-dependent noradrenaline transporter (Homo sapiens, UniProt P23975)
Sequence of Sodium-dependent noradrenaline transporter (P23975 whole entry): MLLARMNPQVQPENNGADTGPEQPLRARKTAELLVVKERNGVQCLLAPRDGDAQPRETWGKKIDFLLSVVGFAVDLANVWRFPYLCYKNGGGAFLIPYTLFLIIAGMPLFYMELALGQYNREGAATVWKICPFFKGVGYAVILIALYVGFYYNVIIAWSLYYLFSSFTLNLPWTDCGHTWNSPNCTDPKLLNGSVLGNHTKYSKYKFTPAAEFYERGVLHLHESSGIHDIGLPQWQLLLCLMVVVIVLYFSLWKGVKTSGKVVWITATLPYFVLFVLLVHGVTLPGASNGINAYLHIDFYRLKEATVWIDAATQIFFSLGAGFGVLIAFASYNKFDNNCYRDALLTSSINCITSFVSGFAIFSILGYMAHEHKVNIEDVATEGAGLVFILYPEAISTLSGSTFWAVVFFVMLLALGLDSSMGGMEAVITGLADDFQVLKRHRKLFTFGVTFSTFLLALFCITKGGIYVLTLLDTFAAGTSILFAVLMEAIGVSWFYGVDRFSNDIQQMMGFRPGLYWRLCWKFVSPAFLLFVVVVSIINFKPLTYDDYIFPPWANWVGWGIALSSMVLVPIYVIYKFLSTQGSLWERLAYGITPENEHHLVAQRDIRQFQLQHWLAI

[7] = target: Sodium-dependent serotonin transporter (Homo sapiens, UniProt P31645)
Sequence of Sodium-dependent serotonin transporter (P31645 whole entry): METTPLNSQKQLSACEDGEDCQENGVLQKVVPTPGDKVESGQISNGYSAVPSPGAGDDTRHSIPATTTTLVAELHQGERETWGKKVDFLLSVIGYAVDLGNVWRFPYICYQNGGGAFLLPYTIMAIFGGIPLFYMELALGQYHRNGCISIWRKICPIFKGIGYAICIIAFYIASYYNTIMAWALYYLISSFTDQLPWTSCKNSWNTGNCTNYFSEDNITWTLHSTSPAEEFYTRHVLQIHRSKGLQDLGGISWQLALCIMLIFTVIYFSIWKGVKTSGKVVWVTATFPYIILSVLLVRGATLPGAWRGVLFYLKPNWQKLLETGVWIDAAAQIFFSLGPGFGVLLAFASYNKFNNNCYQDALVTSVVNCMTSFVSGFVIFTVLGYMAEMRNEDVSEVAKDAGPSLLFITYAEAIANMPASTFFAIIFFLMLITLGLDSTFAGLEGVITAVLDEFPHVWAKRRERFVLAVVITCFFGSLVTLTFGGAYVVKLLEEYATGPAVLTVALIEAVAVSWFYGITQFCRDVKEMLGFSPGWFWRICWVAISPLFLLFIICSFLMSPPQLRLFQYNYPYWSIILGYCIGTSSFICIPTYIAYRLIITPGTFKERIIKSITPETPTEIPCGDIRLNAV
Note: assay procedure not described here.

Sequence of D(1A) dopamine receptor (P21728 whole entry): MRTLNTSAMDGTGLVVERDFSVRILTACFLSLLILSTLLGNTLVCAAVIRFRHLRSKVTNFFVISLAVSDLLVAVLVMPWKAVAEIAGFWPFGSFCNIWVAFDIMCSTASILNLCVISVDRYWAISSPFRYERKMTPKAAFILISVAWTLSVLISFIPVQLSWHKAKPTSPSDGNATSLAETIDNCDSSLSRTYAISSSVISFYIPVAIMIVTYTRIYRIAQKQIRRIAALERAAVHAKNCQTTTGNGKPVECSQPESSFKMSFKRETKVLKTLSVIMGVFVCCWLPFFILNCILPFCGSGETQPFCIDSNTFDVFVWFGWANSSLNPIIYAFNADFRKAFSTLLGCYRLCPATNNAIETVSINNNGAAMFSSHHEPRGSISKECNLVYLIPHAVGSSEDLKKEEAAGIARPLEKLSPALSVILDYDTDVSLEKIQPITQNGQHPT

| Compound | AC50 [1] | AC50 [2] | AC50 [3] | AC50 [4] | AC50 [5] | AC50 [6] | AC50 [7] |
| --- | --- | --- | --- | --- | --- | --- | --- |
| [H]/N=C(\N/C(=N/[H])Nc1ccc(Cl)cc1)NC(C)C [PROGUANIL] | 8.26 µM | > 30 µM | > 30 µM | > 30 µM | > 30 µM | 1.07 µM | 22.8 µM |
| CC(=O)Oc1cc(C(F)(F)F)ccc1C(=O)O [TRIFLUSAL] | > 30 µM | > 30 µM | > 30 µM | > 30 µM | > 30 µM | > 30 µM | > 30 µM |
| N[C@@H](CS)C(=O)O [CYSTEINE] | > 30 µM | > 30 µM | > 30 µM | > 30 µM | > 30 µM | > 30 µM | > 30 µM |
| CCn1cc(C(=O)O)c(=O)c2cc3c(cc21)OCO3 [OXOLINIC ACID] | > 30 µM | > 30 µM | > 30 µM | > 30 µM | > 30 µM | > 30 µM | > 30 µM |
| CC(C)C[C@H](NC(=O)CNC(=O)c1cc(Cl)ccc1Cl)B(O)O [IXAZOMIB] | > 30 µM | > 30 µM | > 30 µM | > 30 µM | > 30 µM | > 30 µM | > 30 µM |
| O=C(O)c1cc(/N=N/c2ccc(O)c(C(=O)O)c2)ccc1O [OLSALAZINE] | > 30 µM | > 30 µM | > 30 µM | > 30 µM | > 30 µM | > 30 µM | > 30 µM |
| O=C1/C(=C2\Nc3ccc(S(=O)(=O)O)cc3C2=O)Nc2ccc(S(=O)(=O)O)cc21 [INDIGOTINDISULFONATE] | > 30 µM | > 30 µM | > 30 µM | > 30 µM | > 30 µM | > 30 µM | > 30 µM |
| CC[C@H](c1ccc(O)cc1)[C@@H](CC)c1ccc(O)cc1 [HEXESTROL] | 15.5 µM | > 30 µM | 15 µM | > 30 µM | 1.85 µM | 8.77 µM | > 30 µM |
| C/C=C/C/C=C/CCC(=O)[C@H]1O[C@H]1C(N)=O [CERULENIN] | > 30 µM | > 30 µM | > 30 µM | > 30 µM | > 30 µM | > 30 µM | > 30 µM |
| Nc1ccc(C(=O)Oc2ccccc2)c(O)c1 [PHENYL AMINOSALICYLATE] | > 30 µM | > 30 µM | > 30 µM | > 30 µM | > 30 µM | 0.777 µM | > 30 µM |
| CCc1nc(C(N)=O)c(Nc2ccc(N3CCC(N4CCN(C)CC4)CC3)c(OC)c2)nc1NC1CCOCC1 [GILTERITINIB] | > 30 µM | > 30 µM | > 30 µM | > 30 µM | > 30 µM | > 30 µM | > 30 µM |
| COc1c2ccoc2cc2oc(=O)ccc12 [BERGAPTEN] | > 30 µM | > 30 µM | > 30 µM | > 30 µM | 12.4 µM | > 30 µM | > 30 µM |
| N[C@@H](CO)C(=O)O [SERINE] | > 30 µM | > 30 µM | > 30 µM | > 30 µM | > 30 µM | > 30 µM | > 30 µM |
| CN1CCCCC1CCN1c2ccccc2Sc2ccc([S+](C)[O-])cc21 (configuration not stated) [MESORIDAZINE] | 0.0712 µM | 0.214 µM | 2.99 µM | > 30 µM | > 30 µM | 28.8 µM | > 30 µM |
| Cc1onc(-c2ccccc2)c1C(=O)N[C@@H]1C(=O)N2[C@@H]1SC(C)(C)[C@@H]2C(=O)O [OXACILLIN] | > 30 µM | > 30 µM | > 30 µM | > 30 µM | > 30 µM | > 30 µM | > 30 µM |
| CC(CN1CC(=O)NC(=O)C1)N1CC(=O)NC(=O)C1 (configuration not stated) [RAZOXANE] | > 30 µM | > 30 µM | > 30 µM | > 30 µM | > 30 µM | > 30 µM | > 30 µM |

Source: ChEMBL document CHEMBL5291721, “A preclinical secondary pharmacology resource illuminates target-adverse drug reaction associations of marketed drugs” (Nat Commun, 2023)
